pKd: −log10 of the molar value.
Key:
[1] = system: Dsg2^mut/mut ES-CMs; test: FACS analysis of apoptosis (AnnexinV/propidium iodide) in ISO/Ca2+-treated ES-CMs; assay type: cell-based, mouse; conditions: 7 days, 5 μM or 25 μM peptide
Method: Mouse embryonic stem cells (ESs) were maintained and differentiated, and the absence of mycoplasma contamination was confirmed prior to experimental studies. Briefly, mouse ESs from both WT and Dsg2^mut/mut mice were derived from E3.5 embryos and maintained on gelatin-coated dishes in maintenance medium (Glasgow minimum essential medium supplemented with 10% fetal bovine serum and 3 μM Chir99021 and 1 μM PD98059 or 1000 U/ml ESGRO; Millipore), Glutamax, sodium pyruvate, and MEM non-essential amino acids (Thermo Fisher Scientific). For cardiomyocyte (CM) differentiation, ESs were plated in IMDM/Ham's F12 (Cellgro, at 3:1) supplemented with N2, B27, penicillin/streptomycin, 2 mM GlutaMAX, 0.05% BSA, 5 ng/ml L-ascorbic acid (Sigma-Aldrich), and α-monothioglycerol (MTG; Sigma-Aldrich) at a final density of 100,000 cells/ml to allow spheroid formation. After 48 hours, embryoid bodies were collected and transferred to ultra-low attachment plastic surface and induced for 40 hours with Activin A and Bmp4 (R&D Systems). Cells were then dissociated and plated as monolayers for 48 hours in the presence of 10 μM XAV to allow cardiomyocyte differentiation. […] (4) After 7 days of treatment, ES-CMs were stained with AnnexinV in a buffer containing 10 mM HEPES (pH 7.4), 140 mM NaCl, 2.5 mM CaCl2, followed by the addition of 1 mg/ml propidium iodide and analyzed by flow cytometry.

[2] = system: HMGB1; test: HMGB1 cytosolic/nuclear levels in ISO/Ca2+-treated ES-CMs; assay type: cell-based, mouse; conditions: ISO/Ca2+-treated Dsg2^mut/mut ES-CMs, 7 days, peptide
Method: Mouse embryonic stem cells (ESs) were maintained and differentiated, and the absence of mycoplasma contamination was confirmed prior to experimental studies. Briefly, mouse ESs from both WT and Dsg2^mut/mut mice were derived from E3.5 embryos and maintained on gelatin-coated dishes in maintenance medium (Glasgow minimum essential medium supplemented with 10% fetal bovine serum and 3 μM Chir99021 and 1 μM PD98059 or 1000 U/ml ESGRO; Millipore), Glutamax, sodium pyruvate, and MEM non-essential amino acids (Thermo Fisher Scientific). For cardiomyocyte (CM) differentiation, ESs were plated in IMDM/Ham's F12 (Cellgro, at 3:1) supplemented with N2, B27, penicillin/streptomycin, 2 mM GlutaMAX, 0.05% BSA, 5 ng/ml L-ascorbic acid (Sigma-Aldrich), and α-monothioglycerol (MTG; Sigma-Aldrich) at a final density of 100,000 cells/ml to allow spheroid formation. After 48 hours, embryoid bodies were collected and transferred to ultra-low attachment plastic surface and induced for 40 hours with Activin A and Bmp4 (R&D Systems). Cells were then dissociated and plated as monolayers for 48 hours in the presence of 10 μM XAV to allow cardiomyocyte differentiation. The resulting ES-CMs were cultured 45 days before experimental procedures were performed. […]

[3] = system: tAIF; test: Nuclear import and localization of tAIF in ISO/Ca2+-treated ES-CMs; assay type: cell-based, mouse; conditions: ISO/Ca2+-treated Dsg2^mut/mut ES-CMs, 7 days
Method: Mouse embryonic stem cells (ESs) were maintained and differentiated, and the absence of mycoplasma contamination was confirmed prior to experimental studies. Briefly, mouse ESs from both WT and Dsg2^mut/mut mice were derived from E3.5 embryos and maintained on gelatin-coated dishes in maintenance medium (Glasgow minimum essential medium supplemented with 10% fetal bovine serum and 3 μM Chir99021 and 1 μM PD98059 or 1000 U/ml ESGRO; Millipore), Glutamax, sodium pyruvate, and MEM non-essential amino acids (Thermo Fisher Scientific). […]
All myocardium (sedentary and exercised mouse cohorts and patient myocardial biopsies) were formalin-fixed and paraffin-embedded (FFPE). […] Following three additional washes, ProLong Gold Antifade Mountant with DAPI (Thermofisher, 936931) were applied, and slides were coverslipped, and immunoreactive signal was detected via laser scanning microscopy (Zeiss LSM 510 Meta). […]
Following immunostaining, AIF-fluorescence and nuclear fluorescence (DAPI) were detected via laser scanning microscopy (Zeiss LSM 510 Meta) via a sequential fashion to avoid crosstalk between fluorophores. Merged images were obtained using Zeiss LSM software, and approximately 3-10 Regions of Interest (ROIs) were assessed per condition (mouse myocardium and patient myocardial biopsies). […]

[4] = molecular target: PPIA (Homo sapiens, UniProt P62937); conditions: read-out: KD, affinity to PPIA-binding; cited from earlier work
[5] = system: HT-22 cells; conditions: cited from earlier work

PPIA, sequence (P62937 whole entry, species assumed): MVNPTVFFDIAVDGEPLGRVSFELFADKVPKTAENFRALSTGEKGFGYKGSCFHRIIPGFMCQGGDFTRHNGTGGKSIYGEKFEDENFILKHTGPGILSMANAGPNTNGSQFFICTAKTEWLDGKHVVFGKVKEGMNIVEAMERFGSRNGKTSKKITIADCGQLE

Substance | apoptosis (FACS) [1] | increased cytosolic and decreased nuclear HMGB1 levels [2] | PPIA-mediated nuclear import of tAIF (immunoblot) [3] | tAIF nuclear localization (immunostaining) [3] | pKd [4] | neuroprotective effects in HT-22 cells during the oxidative stress [5]
NH2-GRKKRRQRRR(βAla)QSVGVSSGKLLIKLKDGRKVETDHI-NH2 (GRKKRRQRRRAQSVGVSSGKLLIKLKDGRKVETDHI; C-terminal amide; MOD_RES (11)..(11) 1,2-dihydro-3(6h)-pyridinone beta-alanine) [TAT-AIF (370-394), Linear peptide, 38 amino acids long, N-terminal TAT fragment for cell uptake] | attenuated | prevented | precluded | precluded | 4.92 | –
Ac-CIKLKDGRKVC-NH2 [AIF (381-389) ox, Cyclic peptide, 11 amino acids long] | – | – | – | – | – | provides neuroprotective

From US20240109937A1, “BINDING PEPTIDES AND USES THEREOF” (The Johns Hopkins University, priority 2021, published 2024)
